# Results reported in US20030008897A1, “Method of controlling weight gain associated with therapeutic drugs” (priority 2000, published 2003).
# Key:
# [1] = biological target: [3H]Noradenaline reuptake (Rattus norvegicus, UniProt Q9WTR4); assay: in vitro [3H]noradrenaline reuptake inhibition in rat brain tissue; type: biochemical; conditions: means of ≧3 separate determinations
# [2] = test system: female Sprague-Dawley rats; assay: clozapine-induced hyperphagia (food intake) in rats; type: in vivo, rat; conditions: for Mean food intake ± SEM: 3 mg/kg orally, food intake over 2 h, n=10, vehicle 6.5 ± 0.9
# Method: Experiments were performed in individually-housed female Sprague-Dawley rats with free access to food (powdered rat chow containing 20% lard) and tap water at all times. On the day of the experiment, animals (n=10) were dosed orally with vehicle; the neuroleptic clozapine 3 mg/kg; sibutramine 3 mg/kg or sibutramine plus clozapine 3 mg/kg; and their food intake was monitored over 2 h.
SMILES,Ki [1] [nM],Mean food intake ± SEM [2] [g/kg],"effect on food intake compared to vehicle-treated control group ([2]; 3 mg/kg po, over 2 h)"
CC(NC(C)(C)C)C(=O)c1cccc(Cl)c1 (stereo not shown) [Bupropion],2590,,
CN1CCN(C2=Nc3cc(Cl)ccc3Nc3ccccc32)CC1 [Clozapine],,9.3 ± 0.7,
"CC(C)CC(N(C)C)C1(c2ccc(Cl)cc2)CCC1 (stereo not shown) [Sibutramine, N,N-dimethyl-1-[1-(4-chlorophenyl)cyclobutyl]-3-methylbutylamine]",,1.7 ± 0.6,significantly decreased food intake
